Measurements reported in patent publication US6034053A, “EGF-isoflavone conjugates for the prevention of restenosis” (Wayne Hughes Institute, priority 1998, dated 2000).

System: vascular injury-induced neointimal hyperplasia
Assay: Murine restenosis model: photoactivated rose bengal vascular injury of the femoral artery, histomorphometric analysis
Assay type: in vivo, C57B1/6 mice
Details: for Stenosis Index (Mean ± SE), neointima/media ratio in areas of maximum neointimal hyperplasia, 4 weeks: 4 weeks after injury, i.p., EGF-Gen 0.1 mg/kg/dose twice daily for 28 days, Gen or quinazolines 2 mg/kg/dose once per day in 10% DMSO
Procedure: Three to four week old C57 B1/6 male mice (Taconic, Germantown, N.Y.) were housed in micro-isolator cages on a 12-hour day/night cycle and kept for 2 weeks on the Paigen's cocoa butter diet of 15.8% fat, 1.25% cholesterol and 0.5% sodium cholate (Harlan Teklad, Madison, Wis., U.S.A.) to induce high plasma cholesterol levels similar to those of patients with lipid disorders.
Mice were injected with 300 microliters of a 3 mg/ml photoactivated rose bengal solution (Aldrich, Milwaukee, Wis.) in sterile PBS via the tail vein and anesthetized with ketamine/xylazine solution (100 mg ketamine/kg and 5 […]). Photoactivation of rose bengal using percutaneous irradiation with a green light source (300 Watt Xenon arced lamp equipped with a 550 nanometer broad band interference filter, Oriel Scientific, Stratford, Conn.) was performed on the shaved left leg by placing a 3.2 mm glass fiber optic light guide directly into the left femoral vein/artery for 10 minutes. The unirradiated right femoral artery served as an internal control.
Following irradiation the mice were treated for either 14 days or 28 days with intraperitoneal injections of (1) EGF-Gen conjugate or unconjugated EGF (modified EGF not conjugated to genistein) at a dose level of 0. I mg/kg/dose once in the morning and once in the evening; or (2) 2 mg/kg/dose of unconjugated genistein or derivatives of 6,7-dimethoxyquinizalone dissolved in 10% DMSO once per day; or (3) with PBS.
At the times indicated, the animals were euthanized with ketamine/xylazine and perfused with PBS followed by 4% phosphate buffered formalin. PBS and formalin were pumped through the left ventricle of the heart and allowed to exit through a 3 mm incision through the interior wall of the right ventricle. […] Serial sections were examined for areas of maximum neointimal hyperplasia for which the ratios of neointima/media (stenosis index) were determined. […]
All numeric data are shown as mean±SEM. […] Cumulative percentage plots were analyzed using Wilcoxon statistics by Statview, Abacus Concepts, Inc., Berkeley, Calif. […]

SMILES: O=c1c(-c2ccc(O)cc2)coc2cc(O)cc(O)c12 [Gen, 5,7,4'-trihydroxyisoflavone, reference compound]
- Stenosis Index (Mean ± SE), neointima/media ratio in areas of maximum neointimal hyperplasia, 4 weeks: 1.03 ± 0.18
- Stenosis Index (Mean ± SE), neointima/media ratio in areas of maximum neointimal hyperplasia, 4 weeks (listed as unconjugated Gen): 1.03±0.18
- Effect on neointimal hyperplasia / neointima formation (in words) (injured femoral arteries, EGF-Gen at less than 5% of the highest nontoxic dose): ineffective
